In the assay the test system is P388 leukemia ip, CD2F1 mice, survival T/C. Description: NCI In Vivo Anticancer Drug Screen. Data for tumor model P388 Leukemia (intraperitoneal) in CD2F1 (CDF1) mice. Conditions: endpoint: median survival time, higher = longer survival. The method, boiled down:
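Mice carrying the transplanted tumor received test compound or vehicle. Survival was recorded in each group, and the value is the treated-group measurement divided by that of the vehicle-treated control group.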

Where [1] appears, read: dose: 60.0 mg/kg/injection, schedule: Q01DX005 (ip), vehicle: Klucel (hydroxypropylcellulose) (HPC).
The mark [2] stands for this setting: dose: 120.0 mg/kg/injection, schedule: Q01DX005 (ip), vehicle: Klucel (hydroxypropylcellulose) (HPC).
The mark [3] stands for this setting: dose: 240.0 mg/kg/injection, schedule: Q01DX005 (ip), vehicle: Klucel (hydroxypropylcellulose) (HPC).
The mark [4] stands for this setting: dose: 50.0 mg/kg/injection, schedule: Q01DX009 (ip), vehicle: saline with Tween-80.
Setting [5] is: dose: 100.0 mg/kg/injection, schedule: Q01DX009 (ip), vehicle: saline with Tween-80.
[6] abbreviates: dose: 60.0 mg/kg/injection, schedule: Q01DX005 (ip), vehicle: saline with Tween-80.
Where [7] appears, read: dose: 120.0 mg/kg/injection, schedule: Q01DX005 (ip), vehicle: saline with Tween-80.
Setting [8] is: dose: 240.0 mg/kg/injection, schedule: Q01DX005 (ip), vehicle: saline with Tween-80.
Where [9] appears, read: dose: 25.0 mg/kg/injection, schedule: Q01DX009 (ip), vehicle: other.
Where [10] appears, read: dose: 50.0 mg/kg/injection, schedule: Q01DX009 (ip), vehicle: other.
Where [11] appears, read: dose: 200.0 mg/kg/injection, schedule: Q01DX009 (ip), vehicle: other.
Setting [12] is: dose: 50.0 mg/kg/injection, schedule: Q01DX009 (ip), vehicle: saline.
The mark [13] stands for this setting: dose: 100.0 mg/kg/injection, schedule: Q01DX009 (ip), vehicle: saline.
The mark [14] stands for this setting: dose: 200.0 mg/kg/injection, schedule: Q01DX009 (ip), vehicle: saline with Tween-80.
Where [15] appears, read: dose: 200.0 mg/kg/injection, schedule: Q01DX009 (ip), vehicle: saline.
Where [16] appears, read: dose: 50.0 mg/kg/injection, schedule: Q01DX005 (ip), vehicle: Klucel (hydroxypropylcellulose) (HPC).
Where [17] appears, read: dose: 100.0 mg/kg/injection, schedule: Q01DX005 (ip), vehicle: Klucel (hydroxypropylcellulose) (HPC).
[18] abbreviates: dose: 200.0 mg/kg/injection, schedule: Q01DX005 (ip), vehicle: Klucel (hydroxypropylcellulose) (HPC).
[19] abbreviates: dose: 50.0 mg/kg/injection, schedule: Q01DX005 (ip), vehicle: saline.
[20] abbreviates: dose: 100.0 mg/kg/injection, schedule: Q01DX005 (ip), vehicle: saline.

Where “and” joins values, the source holds several entries; their conditions need not be identical. Identical values can stand only once. Toxic doses and inconclusive results are not listed.

The source of these data is PubChem BioAssay AID330 (DTP/NCI, 2004).

In the case of `CC(=Nc1ccc(C)cc1N)c1c(O)cc(C)oc1=O`, the T/C under setting [1] was 95 % of control, the T/C under setting [2] was 96 % of control and the T/C under setting [3] is 101 % of control.
For the compound `COC(=O)c1[nH]c(=O)[nH]c(=O)c1F`, the T/C (dose: 8.0 mg/kg/injection, schedule: Q01DX009 (ip), vehicle: saline with Tween-80) is 118 % of control; the T/C (dose: 16.0 mg/kg/injection, schedule: Q01DX009 (ip), vehicle: saline with Tween-80) was 104 % of control; the T/C (dose: 22.0 mg/kg/injection, schedule: Q04DX003 (ip), vehicle: saline with Tween-80) is 110 % of control; the T/C (dose: 25.0 mg/kg/injection, schedule: Q01DX009 (ip), vehicle: saline with Tween-80) is 100 % of control; the T/C under setting [4] is 100 % of control; the T/C (dose: 50.0 mg/kg/injection, schedule: Q04DX003 (ip), vehicle: saline with Tween-80) is 155 % of control. Also, the T/C under setting [5] is 90 % of control.
Consider `Cn1c(=O)[nH]c(N)c(C(=O)CCl)c1=O`, for which the T/C is 97 % of control under setting [6] and 105 % of control under setting [7].
On to `NC(CCCCCCCCCCCCC(N)C(=O)c1ccccc1)C(=O)c1ccccc1` (stereo not drawn), for which the T/C is 101 % of control under setting [6], 93 % of control under setting [7] and 93 % of control under setting [8].
For `CC(=O)O[C@@H]1C[C@H](O)[C@@]23COC(O)[C@H]1[C@@H]2C[C@@H](O)[C@@]1(C)C2C(=O)C[C@@H](c4ccoc4)[C@]2(C)CC[C@@H]13` (stereo partly drawn), the T/C (dose: 2.4 mg/kg/injection, schedule: Q01DX009 (ip), vehicle: Klucel (hydroxypropylcellulose) (HPC)) was 99 % of control; the T/C (dose: 18.75 micrograms/kg/injection, schedule: Q01DX009 (ip), vehicle: Klucel (hydroxypropylcellulose) (HPC)) was 107 % of control; the T/C (dose: 37.5 micrograms/kg/injection, schedule: Q01DX009 (ip), vehicle: Klucel (hydroxypropylcellulose) (HPC)) is 117 % of control; the T/C (dose: 75.0 micrograms/kg/injection, schedule: Q01DX009 (ip), vehicle: Klucel (hydroxypropylcellulose) (HPC)) was 96 % of control; the T/C (dose: 150.0 micrograms/kg/injection, schedule: Q01DX009 (ip), vehicle: Klucel (hydroxypropylcellulose) (HPC)) was 101 % of control.
As for `COc1ccc(S(=O)(=O)NN)cc1`, the T/C runs as follows: under setting [9], 106 % of control; under setting [10], 103 % of control; (dose: 100.0 mg/kg/injection, schedule: Q01DX009 (ip), vehicle: other) 104 % of control; under setting [11], 106 % of control.
For the compound `CCNc1ccc(C(=O)c2cccc(N)c2)cc1N`, the T/C was 96 % of control under setting [6], 96 % of control under setting [7] and 89 % of control under setting [8].
Turning to `Oc1ccccc1C=NCCC[OH2+].Oc1ccccc1C=NCCC[OH2+].[Cu].[Cu]`, the T/C (dose: 25.0 mg/kg/injection, schedule: Q01DX005 (ip), vehicle: saline with Tween-80) is 103 % of control; the T/C (dose: 50.0 mg/kg/injection, schedule: Q01DX005 (ip), vehicle: saline with Tween-80) is 100 % of control and 102 % of control and 104 % of control; the T/C (dose: 100.0 mg/kg/injection, schedule: Q01DX005 (ip), vehicle: saline with Tween-80) is 109 % of control.
As to `COC(=O)C(C)(OC)SC` (stereo not drawn), the T/C runs as follows: under setting [6], 106 % of control; under setting [7], 100 % of control; under setting [8], 98 % of control.
With `OC1COCCC(O)(CNCc2ccccc2)C1O` (stereo not drawn), the T/C under setting [12] is 98 % of control and the T/C under setting [13] was 107 % of control.
Turning to `CN(C)C=Nc1ccccc1C#N`, the T/C runs as follows: under setting [4], 105 % of control; under setting [5], 106 % of control; under setting [14], 97 % of control.
As for `COc1cc2cccc(O)c2cc1OC`, the T/C runs as follows: (dose: 12.5 mg/kg/injection, schedule: Q01DX009 (ip), vehicle: other) 90 % of control; under setting [9], 106 % of control; under setting [10], 92 % of control; under setting [11], 90 % of control.
Take `Nc1cccc2c1C(=O)c1cccc(Cl)c1C2=O`: the T/C is 104 % of control (dose: 100.0 mg/kg/injection, schedule: Q04DX003 (ip), vehicle: saline with Tween-80); 104 % of control (dose: 200.0 mg/kg/injection, schedule: Q04DX003 (ip), vehicle: saline with Tween-80); 100 % of control (dose: 400.0 mg/kg/injection, schedule: Q04DX003 (ip), vehicle: saline with Tween-80).
For the compound `NC(=O)CSc1ncnc2nc[nH]c12`, the T/C is 97 % of control under setting [12], 100 % of control under setting [13] and 102 % of control under setting [15].
For `COc1ccc(Nc2cc[nH]c(=O)c2NC(C)=O)cc1`, the T/C is 100 % of control under setting [6], 96 % of control under setting [7] and 94 % of control under setting [8].
Regarding `Fc1ccccc1C(Nc1ncccn1)Nc1ncccn1`, the T/C reads like this: under setting [4], 88 % of control; under setting [12], 94 % of control; under setting [5], 87 % of control; under setting [13], 99 % of control; under setting [14], 87 % of control; under setting [15], 94 % of control.
Regarding `O=c1[nH]c(=S)[nH]c2c1CN(CCCN1CCN(CCCN3CNc4[nH]c(=S)[nH]c(=O)c4C3)CC1)CN2`, the T/C under setting [16] was 96 % of control, the T/C under setting [17] was 94 % of control and the T/C under setting [18] was 95 % of control.
As for `O=C(O)/C=C/c1ccc([N+](=O)[O-])cc1`, the T/C under setting [5] is 100 % of control and the T/C under setting [14] is 105 % of control.
For `C=C1C(=O)OC2C1C(OC(=O)/C(=C/C)CO)CC(C)(O)C1CC=C(C)C21` (stereo not drawn), the T/C (dose: 11.88 mg/kg/injection, schedule: Q01DX005 (ip), vehicle: Klucel (hydroxypropylcellulose) (HPC)) was 109 % of control; the T/C (dose: 23.75 mg/kg/injection, schedule: Q01DX005 (ip), vehicle: Klucel (hydroxypropylcellulose) (HPC)) is 109 % of control; the T/C (dose: 47.5 mg/kg/injection, schedule: Q01DX005 (ip), vehicle: Klucel (hydroxypropylcellulose) (HPC)) was 102 % of control.
In the case of `CCc1cc(C(=O)OC)c(=O)n2c1-c1[nH]c3ccccc3c1CC2`, the T/C under setting [16] is 94 % of control, the T/C under setting [17] is 95 % of control and the T/C under setting [18] is 89 % of control.
In the case of `O=C(O)c1cccnn1`, the T/C was 90 % of control under setting [4] and 90 % of control under setting [5].
For `CCN(CC)CCOC1C=C(C)C2CC1C2(C)C` (stereo not drawn), the T/C runs as follows: under setting [19], 101 % of control; under setting [20], 101 % of control.
As for `N#CC(=N)C(C#N)=Nc1c(O)[nH]c2ccc(Br)cc12`, the T/C was 100 % of control under setting [12], 94 % of control under setting [13] and 91 % of control under setting [15].
On to `COc1cc(/C=N/N2CN(C(C)C(=O)O)B(NCCC(C)C)N=C2N)cc(OC)c1` (stereo not drawn), for which the T/C is, setting by setting: under setting [6], 104 % of control; under setting [7], 111 % of control.
`CNC(=O)N(C)CP(=O)(CN(C)C(=O)NC)CN(C)C(=O)NC`: the T/C runs as follows: under setting [12], 97 % of control; under setting [13], 100 % of control; under setting [15], 99 % of control.
The like results for `CCOC(=O)C1=C(C)N(Cc2ccccc2)C2(O)C1=CC(=O)C(Cl)=C2Cl` (stereo not drawn) were, in that order, 99 % of control, 105 % of control and 108 % of control.
For the compound `COc1cccc(OC)c1OCCBr`, the T/C is, setting by setting: under setting [4], 103 % of control; under setting [5], 98 % of control; under setting [14], 100 % of control.
As for `Cc1[nH]c2c(-c3ccccc3)c3cc(Cl)ccc3nc2c1C(=O)O`, the T/C is, setting by setting: (dose: 25.0 mg/kg/injection, schedule: Q01DX009 (ip), vehicle: Klucel (hydroxypropylcellulose) (HPC)) 92 % of control; (dose: 50.0 mg/kg/injection, schedule: Q01DX009 (ip), vehicle: Klucel (hydroxypropylcellulose) (HPC)) 89 % of control; (dose: 100.0 mg/kg/injection, schedule: Q01DX009 (ip), vehicle: Klucel (hydroxypropylcellulose) (HPC)) 86 % of control.
On to `CCC(C)(C)c1ccc(OCCCCNC(=O)c2ccc3ccccc3c2O)c(C(C)(C)CC)c1`, for which the T/C is, setting by setting: under setting [1], 90 % of control; under setting [2], 89 % of control; under setting [3], 86 % of control.
On to `CN(C)/[N+]([O-])=N/N1C(=O)c2ccccc2C1=O`, for which the T/C under setting [16] was 101 % of control, the T/C under setting [17] was 105 % of control and the T/C under setting [18] is 101 % of control.
For the compound `CN1C2CCC1C(Br)C(=O)C2` (stereo not drawn), the T/C under setting [19] is 100 % of control; the T/C under setting [20] was 108 % of control (2×) and 109 % of control; the T/C (dose: 200.0 mg/kg/injection, schedule: Q01DX005 (ip), vehicle: saline) was 118 % of control.
